Results as given in patent US9896710B2, “Glycosyltransferase derived from Dolwoe and use thereof” (KOREA ADVANCED INSTITUTE OF SCIENCE AND TECHNOLOGY, priority 2014, dated 2018).

System: UDP-glycosyltransferase GpUGT23
Assay: In vitro glycosyltransferase assay of purified recombinant GpUGT23 with ginsenoside substrates and UDP-glucose
Type: biochemical, Dolwoe (Gynostemma pentaphyllum)
Details: purified GpUGT23 30 μg, ginsenoside 5 mM, UDP-glucose 50 mM, 10 mM PBS pH 7, 37° C., 12 hours, products: CK->gypenoside LXXV, F2->gypenoside XVII, Rd->Rb1, F1->notoginsenoside U; for conversion of the ginsenoside by GpUGT23 (glycosyltransfer activity), HPLC: UV 203 nm (FIGS. 3 and 4); for conversion of the ginsenoside by GpUGT23 (glycosyltransfer activity), TLC: TLC (FIG. 2)
Protocol: A glycosyltransferase assay was performed in a reaction buffer (10 mM PBS buffer, pH 7) containing the purified GpUGT23 (30 μg), a ginsenoside compound (5 mM) and UDP-glucose (50 mM). For this assay, 4 different types of ginsenosides, including CK (Compound K), F2, Rd, and F1, were used and reacted with the enzyme of the present invention.
The reaction mixture was incubated at 37° C. for 12 hours, and then the products were analyzed by thin-layer chromatography (TLC) or high performance liquid chromatography (HPLC).
TLC analysis was performed using a mobile phase (acetone:methanol:DDW=65:35:10 vol/vol) and a 60F254 silica gel plate (Merck, Germany). The resolved product on the TLC plate was detected by spraying the plate with 10% (vol/vol) sulfuric acid (H2SO4) and heating it at 110° C. for 5 minutes (FIG. 2).
HPLC analysis was performed using ODS(2) C18 column (Phenomenex, USA). Water and acetonitrile gradient application time and a component ratio are as follows: at a flow rate of 1 mL per minute, at 0 minutes, 68% water and 32% acetonitrile; 8 minutes, 35% water and 65% acetonitrile; 12 minutes, 0% water and 100% acetonitrile; 20 minutes, 0% water and 100% acetonitrile; 20.1 minutes, 68% water and 32% acetonitrile; and 28 minutes, 68% water and 32% acetonitrile (FIGS. 3 and 4).
Ginsenosides were detected by using a UV-detector (Agilent, USA) at a wavelength of 203 nm.
Substrate specificity and regioselectivity of GpUGT23 were examined by the method described in Example 2.
First, the recombinant GpUGT of Example 1, GpUGT23, was reacted with 9 types of ginsenosides (PPD, Rh2, Rg3, CK, F2, Rd, PPT, F1, and Rh1) in the presence of UDP-glucose, and the reaction products of CK, F2, Rd, and F1 were analyzed by TLC (thin-layer chromatography).
To further analyze these, 4 different types of ginsenosides (CK, F2, Rd, and F1) were incubated with GpUGT23, and then the products converted by the recombinant GpUGT23 were analyzed by TLC, and the results are shown in FIG. 2. The results were confirmed by comparing their migrating spots with migrating spots of CK, Gyp75 (gypenoside LXXV), F2, Gyp17 (gypenoside XVII), Rd, Rb1, and F1 used as reference samples.

| Compound | conversion of the ginsenoside by GpUGT23 (glycosyltransfer activity), HPLC | conversion of the ginsenoside by GpUGT23 (glycosyltransfer activity), TLC |
| --- | --- | --- |
| CC(C)=CCCC(C)(O)[C@H]1CC[C@]2(C)[C@@H]1[C@H](O)C[C@@H]1[C@@]3(C)CC[C@H](O)C(C)(C)[C@@H]3CC[C@]12C (stereo in doubt) [PPD, protopanaxadiol] | did not react |  |
| CC(C)=CCC[C@](C)(O)[C@H]1CC[C@]2(C)[C@@H]1[C@H](O)C[C@@H]1[C@@]3(C)CC[C@H](O)C(C)(C)[C@@H]3[C@@H](O)C[C@]12C [PPT, protopanaxatriol] | did not react |  |
| CC(C)=CCC[C@](C)(O[C@@H]1O[C@H](CO)[C@@H](O)[C@H](O)[C@H]1O)[C@H]1CC[C@]2(C)[C@@H]1[C@H](O)C[C@@H]1[C@@]3(C)CC[C@H](O[C@@H]4O[C@H](CO)[C@@H](O)[C@H](O)[C@H]4O[C@@H]4O[C@H](CO)[C@@H](O)[C@H](O)[C@H]4O)C(C)(C)[C@@H]3CC[C@]12C [Rd] | converted | converted |
| CC(C)=CCC[C@](C)(O)[C@H]1CC[C@]2(C)[C@@H]1[C@H](O)C[C@@H]1[C@@]3(C)CC[C@H](O[C@@H]4O[C@H](CO)[C@@H](O)[C@H](O)[C@H]4O[C@@H]4O[C@H](CO)[C@@H](O)[C@H](O)[C@H]4O)C(C)(C)[C@@H]3CC[C@]12C [Rg3] | did not react |  |
| CC(C)=CCC[C@](C)(O)[C@H]1CC[C@]2(C)[C@@H]1[C@H](O)C[C@@H]1[C@@]3(C)CC[C@H](O)C(C)(C)[C@@H]3[C@@H](O[C@@H]3O[C@H](CO)[C@@H](O)[C@H](O)[C@H]3O)C[C@]12C [Rh1] | did not react |  |
| CC(C)=CCC[C@](C)(O)[C@H]1CC[C@]2(C)[C@@H]1[C@H](O)C[C@@H]1[C@@]3(C)CC[C@H](O[C@@H]4O[C@H](CO)[C@@H](O)[C@H](O)[C@H]4O)C(C)(C)[C@@H]3CC[C@]12C [Rh2] | did not react |  |

Continued, values first:

| conversion of the ginsenoside by GpUGT23 (glycosyltransfer activity), HPLC | conversion of the ginsenoside by GpUGT23 (glycosyltransfer activity), TLC | Compound |
| --- | --- | --- |
| converted | converted | CC(C)=CCC[C@](C)(O[C@@H]1O[C@H](CO)[C@@H](O)[C@H](O)[C@H]1O)[C@H]1CC[C@]2(C)[C@@H]1[C@H](O)C[C@@H]1[C@@]3(C)CC[C@H](O)C(C)(C)[C@@H]3CC[C@]12C [CK, Compound K] |
| converted | converted | CC(C)=CCC[C@](C)(O[C@@H]1O[C@H](CO)[C@@H](O)[C@H](O)[C@H]1O)[C@H]1CC[C@]2(C)[C@@H]1[C@H](O)C[C@@H]1[C@@]3(C)CC[C@H](O)C(C)(C)[C@@H]3[C@@H](O)C[C@]12C [F1] |
| converted | converted | CC(C)=CCC[C@](C)(O[C@@H]1O[C@H](CO)[C@@H](O)[C@H](O)[C@H]1O)[C@H]1CC[C@]2(C)[C@@H]1[C@H](O)C[C@@H]1[C@@]3(C)CC[C@H](O[C@@H]4O[C@H](CO)[C@@H](O)[C@H](O)[C@H]4O)C(C)(C)[C@@H]3CC[C@]12C [F2] |
| did not transfer a sugar |  | CC(C)=CCC[C@](C)(O)[C@H]1CC[C@]2(C)[C@@H]1[C@H](O)C[C@@H]1[C@@]3(C)CC[C@H](O)C(C)(C)[C@@H]3[C@@H](O[C@@H]3O[C@H](CO)[C@@H](O)[C@H](O)[C@H]3O[C@@H]3O[C@@H](C)[C@H](O)[C@@H](O)[C@H]3O)C[C@]12C [Rg2] |
